# Test results published in the supplement of paper PMC10307832.
# Tests used:
# Test in all cases: relative viability (nuclei count vs DMSO), 5 days (fraction); higher = more cells survive
# NCI-H520 = tested on: NCI-H520
# How it was run: (§1)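 For relative viability, nuclei counts in treated wells were divided by those in vehicle wells. Lung cancer cell lines had been pin-tool dosed in 1536-well plates the day after seeding and cultured for 5 days, then fixed and stained in one step (final 0.05% Triton X-100, 1% formaldehyde, 1 ug/ml Hoechst) and imaged at 4×. Doses were one drug alone or a fixed anchor-drug dose plus five library-drug doses (not always all listed) in √10 steps, and values are duplicate-plate medians.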
# HCC-78 = tested on: HCC-78
# How it was run: as §1
# RERF-LC-KJ = tested on: RERF-LC-KJ
# How it was run: as §1
# HCC-827 = tested on: HCC-827
# How it was run: as §1
# NCI-H1666 = tested on: NCI-H1666
# How it was run: as §1
# NCI-H647 = tested on: NCI-H647
# How it was run: as §1
# NCI-H2087 = tested on: NCI-H2087
# How it was run: as §1
# COR-L 105 = tested on: COR-L 105
# How it was run: as §1
# 201T = tested on: 201T
# How it was run: as §1
# NCI-H322M = tested on: NCI-H322M
# How it was run: as §1
# NCI-H1915 = tested on: NCI-H1915
# How it was run: as §1
# PC-14 = tested on: PC-14
# How it was run: as §1
# NCI-H661 = tested on: NCI-H661
# How it was run: as §1
# NCI-H23 = tested on: NCI-H23
# How it was run: as §1
# ChaGo-K-1 = tested on: ChaGo-K-1
# How it was run: as §1
# NCI-H2347 = tested on: NCI-H2347
# How it was run: as §1
# H3255 = tested on: H3255
# How it was run: as §1
# NCI-H2405 = tested on: NCI-H2405
# How it was run: as §1
# LCLC-97TM1 = tested on: LCLC-97TM1
# How it was run: as §1
# NCI-H650 = tested on: NCI-H650
# How it was run: as §1
# EPLC-272H = tested on: EPLC-272H
# How it was run: as §1
# NCI-H2126 = tested on: NCI-H2126
# How it was run: as §1
# LC-2-ad = tested on: LC-2-ad
# How it was run: as §1
structure (smiles),measurement,setting,value
NC(=O)Nc1cc(-c2cccc(F)c2)sc1C(=O)N[C@H]1CCCNC1 [AZD7762] + Cc1cc(Nc2cc(N3CCN(C)CC3)nc(Sc3ccc(NC(=O)C4CC4)cc3)n2)n[nH]1 [Tozasertib] (partner 0.1 µM),relative viability,NCI-H520; first compound 0.01 µM,0.493
same,relative viability,NCI-H520; first compound 0.03162 µM,0.36
same,relative viability,NCI-H520; first compound 0.1 µM,0.425
same,relative viability,NCI-H520; first compound 0.3162 µM,0.39
same,relative viability,NCI-H520; first compound 1 µM,0.275
same,relative viability,HCC-78; first compound 0.01 µM,0.539
same,relative viability,HCC-78; first compound 0.03162 µM,0.437
same,relative viability,HCC-78; first compound 0.1 µM,0.515
same,relative viability,HCC-78; first compound 0.3162 µM,0.44
same,relative viability,HCC-78; first compound 1 µM,0.404
same,relative viability,RERF-LC-KJ; first compound 0.01 µM,0.637
same,relative viability,RERF-LC-KJ; first compound 0.03162 µM,0.509
same,relative viability,RERF-LC-KJ; first compound 0.1 µM,0.422
same,relative viability,RERF-LC-KJ; first compound 0.3162 µM,0.453
same,relative viability,RERF-LC-KJ; first compound 1 µM,0.249
same,relative viability,HCC-827; first compound 0.01 µM,0.41
same,relative viability,HCC-827; first compound 0.03162 µM,0.449
same,relative viability,HCC-827; first compound 0.1 µM,0.409
same,relative viability,HCC-827; first compound 0.3162 µM,0.394
same,relative viability,HCC-827; first compound 1 µM,0.372
same,relative viability,NCI-H1666; first compound 0.01 µM,0.703
same,relative viability,NCI-H1666; first compound 0.03162 µM,0.748
same,relative viability,NCI-H1666; first compound 0.1 µM,0.68
same,relative viability,NCI-H1666; first compound 0.3162 µM,0.724
same,relative viability,NCI-H1666; first compound 1 µM,0.47
same,relative viability,NCI-H647; first compound 0.01 µM,0.379
same,relative viability,NCI-H647; first compound 0.03162 µM,0.218
same,relative viability,NCI-H647; first compound 0.1 µM,0.314
same,relative viability,NCI-H647; first compound 0.3162 µM,0.254
same,relative viability,NCI-H647; first compound 1 µM,0.0439
same,relative viability,NCI-H2087; first compound 0.01 µM,0.24
same,relative viability,NCI-H2087; first compound 0.03162 µM,0.266
same,relative viability,NCI-H2087; first compound 0.1 µM,0.323
same,relative viability,NCI-H2087; first compound 0.3162 µM,0.285
same,relative viability,NCI-H2087; first compound 1 µM,0.232
same,relative viability,COR-L 105; first compound 0.01 µM,0.348
same,relative viability,COR-L 105; first compound 0.03162 µM,0.311
same,relative viability,COR-L 105; first compound 0.1 µM,0.328
same,relative viability,COR-L 105; first compound 0.3162 µM,0.3
same,relative viability,COR-L 105; first compound 1 µM,0.258
same,relative viability,201T; first compound 0.01 µM,0.957
same,relative viability,201T; first compound 0.03162 µM,0.935
same,relative viability,201T; first compound 0.1 µM,0.98
same,relative viability,201T; first compound 0.3162 µM,1.03
same,relative viability,201T; first compound 1 µM,0.801
same,relative viability,NCI-H322M; first compound 0.01 µM,0.47
same,relative viability,NCI-H322M; first compound 0.03162 µM,0.515
same,relative viability,NCI-H322M; first compound 0.1 µM,0.514
same,relative viability,NCI-H322M; first compound 0.3162 µM,0.307
same,relative viability,NCI-H322M; first compound 1 µM,0.305
same,relative viability,NCI-H1915; first compound 0.01 µM,0.471
same,relative viability,NCI-H1915; first compound 0.03162 µM,0.497
same,relative viability,NCI-H1915; first compound 0.1 µM,0.483
same,relative viability,NCI-H1915; first compound 0.3162 µM,0.415
same,relative viability,NCI-H1915; first compound 1 µM,0.368
same,relative viability,PC-14; first compound 0.01 µM,0.69
same,relative viability,PC-14; first compound 0.03162 µM,0.544
same,relative viability,PC-14; first compound 0.1 µM,0.555
same,relative viability,PC-14; first compound 0.3162 µM,0.511
same,relative viability,PC-14; first compound 1 µM,0.269
same,relative viability,NCI-H661; first compound 0.01 µM,0.357
same,relative viability,NCI-H661; first compound 0.03162 µM,0.368
same,relative viability,NCI-H661; first compound 0.1 µM,0.372
same,relative viability,NCI-H661; first compound 0.3162 µM,0.432
same,relative viability,NCI-H661; first compound 1 µM,0.396
same,relative viability,NCI-H23; first compound 0.01 µM,0.41
same,relative viability,NCI-H23; first compound 0.03162 µM,0.711
same,relative viability,NCI-H23; first compound 0.1 µM,0.558
same,relative viability,NCI-H23; first compound 0.3162 µM,0.33
same,relative viability,NCI-H23; first compound 1 µM,0.209
same,relative viability,ChaGo-K-1; first compound 0.01 µM,0.215
same,relative viability,ChaGo-K-1; first compound 0.03162 µM,0.224
same,relative viability,ChaGo-K-1; first compound 0.1 µM,0.239
same,relative viability,ChaGo-K-1; first compound 0.3162 µM,0.197
same,relative viability,ChaGo-K-1; first compound 1 µM,0.227
same,relative viability,NCI-H2347; first compound 0.01 µM,0.62
same,relative viability,NCI-H2347; first compound 0.03162 µM,0.551
same,relative viability,NCI-H2347; first compound 0.1 µM,0.585
same,relative viability,NCI-H2347; first compound 0.3162 µM,0.567
same,relative viability,NCI-H2347; first compound 1 µM,0.521
same,relative viability,H3255; first compound 0.01 µM,0.704
same,relative viability,H3255; first compound 0.03162 µM,0.595
same,relative viability,H3255; first compound 0.1 µM,0.677
same,relative viability,H3255; first compound 0.3162 µM,0.591
same,relative viability,H3255; first compound 1 µM,0.576
same,relative viability,NCI-H2405; first compound 0.01 µM,0.793
same,relative viability,NCI-H2405; first compound 0.03162 µM,0.832
same,relative viability,NCI-H2405; first compound 0.1 µM,0.783
same,relative viability,NCI-H2405; first compound 0.3162 µM,0.748
same,relative viability,NCI-H2405; first compound 1 µM,0.424
same,relative viability,LCLC-97TM1; first compound 0.01 µM,0.325
same,relative viability,LCLC-97TM1; first compound 0.03162 µM,0.263
same,relative viability,LCLC-97TM1; first compound 0.1 µM,0.225
same,relative viability,LCLC-97TM1; first compound 0.3162 µM,0.398
same,relative viability,LCLC-97TM1; first compound 1 µM,0.292
same,relative viability,NCI-H650; first compound 0.01 µM,0.71
same,relative viability,NCI-H650; first compound 0.03162 µM,0.643
same,relative viability,NCI-H650; first compound 0.1 µM,0.709
same,relative viability,NCI-H650; first compound 0.3162 µM,0.704
same,relative viability,NCI-H650; first compound 1 µM,0.526
same,relative viability,EPLC-272H; first compound 0.01 µM,0.274
same,relative viability,EPLC-272H; first compound 0.03162 µM,0.242
same,relative viability,EPLC-272H; first compound 0.1 µM,0.248
same,relative viability,EPLC-272H; first compound 0.3162 µM,0.28
same,relative viability,EPLC-272H; first compound 1 µM,0.0908
same,relative viability,NCI-H2126; first compound 0.01 µM,0.889
same,relative viability,NCI-H2126; first compound 0.03162 µM,0.888
same,relative viability,NCI-H2126; first compound 0.1 µM,0.937
same,relative viability,NCI-H2126; first compound 0.3162 µM,0.831
same,relative viability,NCI-H2126; first compound 1 µM,0.454
same,relative viability,LC-2-ad; first compound 0.01 µM,0.623
same,relative viability,LC-2-ad; first compound 0.03162 µM,0.55
same,relative viability,LC-2-ad; first compound 0.1 µM,0.449
same,relative viability,LC-2-ad; first compound 0.3162 µM,0.463
same,relative viability,LC-2-ad; first compound 1 µM,0.268
